Assay results from PubChem BioAssay (NCI).
Where “and” joins values, the source holds several entries; their conditions need not be identical. Equal values may be shown once.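 Following 48 hours of exposure in 96-well plates, responses at five concentrations were used to interpolate endpoints linearly. Here, GI50 denotes the concentration required for 50% inhibition of growth. The concentration for full growth arrest is given as TGI.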

Columns and labels:
Assay in all cases: NCI tumour cell line growth inhibition, 48 h
BT-549 breast = test system: BT-549 breast
HCT-116 colon = test system: HCT-116 colon
MDA-N = test system: MDA-N
SR leukemia = test system: SR leukemia
SNB-75 CNS = test system: SNB-75 CNS
MALME-3M melanoma = test system: MALME-3M melanoma
SF-268 CNS = test system: SF-268 CNS
M14 melanoma = test system: M14 melanoma
DMS 114 small cell lung = test system: DMS 114 small cell lung
DLD-1 colon = test system: DLD-1 colon
KM20L2 colon = test system: KM20L2 colon
SNB-78 CNS = test system: SNB-78 CNS
XF 498 CNS = test system: XF 498 CNS
LXFL 529 NSCLC = test system: LXFL 529 NSCLC
M19-MEL melanoma = test system: M19-MEL melanoma

`O=c1[nH]nc(Cc2ccccc2)n1Nc1ccccc1` was tested, and the TGI (BT-549 breast) was over 100 µM, the TGI (HCT-116 colon) was over 100 µM and the TGI (MDA-N) was over 100 µM. It also gave a TGI (SR leukemia) of over 100 µM, a TGI (SNB-75 CNS) of over 100 µM and a TGI (MALME-3M melanoma) of over 100 µM. The TGI (SF-268 CNS) was over 100 µM.

In the case of `O=[N+]([O-])c1ccc2nc(/C=C(\O)c3ccc(F)cc3)c(/C=C(\O)c3ccc(F)cc3)nc2c1`, the TGI (BT-549 breast) is reported as 91.5 µM, the TGI (HCT-116 colon) is reported as over 100 µM and the TGI (MDA-N) is reported as over 100 µM. The TGI (SR leukemia) was 40.9 µM, the TGI (SNB-75 CNS) was 37.5 µM and the TGI (MALME-3M melanoma) was over 100 µM. The TGI (M14 melanoma) was over 100 µM and the TGI (SF-268 CNS) was over 100 µM.

`S=c1[nH]c(=S)c2cc(Sc3ccc4[nH]c(=S)[nH]c(=S)c4c3)ccc2[nH]1` showed a TGI (BT-549 breast) of 73.2 µM, a TGI (HCT-116 colon) of over 100 µM and a TGI (MDA-N) of over 100 µM. For the same compound, the TGI (SR leukemia) was 51.2 µM, the TGI (SNB-75 CNS) was 42.6 µM and the TGI (MALME-3M melanoma) was over 100 µM. For the same compound, the TGI (M14 melanoma) was over 100 µM and the TGI (SF-268 CNS) was 68 µM.

In the case of `COCCOCCOC1=C(Cl)C(=O)c2c(O)ccc(O)c2C1=O`, the TGI (BT-549 breast) is reported as 4.01 µM, the TGI (HCT-116 colon) is reported as 2.46 µM and the TGI (MDA-N) is reported as 9.63 µM. For the same compound, the TGI (SR leukemia) was 3.04 µM, the TGI (SNB-75 CNS) was 31.5 µM and the TGI (MALME-3M melanoma) was 3.34 µM. For the same compound, the TGI (M14 melanoma) was 3.29 µM and the TGI (SF-268 CNS) was 7.26 µM.

In the case of `O=c1oc2ccccc2n1CCN1CCCCC1`, the TGI (BT-549 breast) is reported as over 100 µM, the TGI (HCT-116 colon) is reported as over 100 µM and the TGI (MDA-N) is reported as over 100 µM. For the same compound, the TGI (SR leukemia) was over 100 µM, the TGI (SNB-75 CNS) was over 100 µM and the TGI (MALME-3M melanoma) was over 100 µM. For the same compound, the TGI (M14 melanoma) was over 100 µM and the TGI (SF-268 CNS) was over 100 µM.

`Cc1nnc2n1-c1ccccc1C(=S)N1CSCC21` (stereo not given) gave a TGI (BT-549 breast) of over 100 µM, a TGI (HCT-116 colon) of over 100 µM and a TGI (MDA-N) of over 100 µM. The TGI (SR leukemia) was over 100 µM, the TGI (SNB-75 CNS) was over 100 µM and the TGI (MALME-3M melanoma) was over 100 µM. The TGI (M14 melanoma) was over 100 µM and the TGI (SF-268 CNS) was over 100 µM.

Compound `CC(=O)OC1c2ccccc2CCCCCCC12OCCO2` (stereo not given) has a TGI (HCT-116 colon) of over 100 µM, a TGI (DMS 114 small cell lung) of over 100 µM and a TGI (SNB-75 CNS) of over 100 µM. The TGI (DLD-1 colon) was over 100 µM, the TGI (KM20L2 colon) was over 100 µM and the TGI (SNB-78 CNS) was over 100 µM. The TGI (MALME-3M melanoma) was over 100 µM, the TGI (M14 melanoma) was over 100 µM and the TGI (SF-268 CNS) was over 100 µM.

In the case of `Cc1nc2c(sc3nc4ccccc4n32)c(=O)[nH]1`, the TGI (BT-549 breast) is reported as over 100 µM, the TGI (HCT-116 colon) is reported as over 100 µM and the TGI (MDA-N) is reported as over 100 µM. For the same compound, the TGI (SR leukemia) was over 100 µM, the TGI (SNB-75 CNS) was over 100 µM and the TGI (MALME-3M melanoma) was over 100 µM. The TGI (M14 melanoma) was over 100 µM and the TGI (SF-268 CNS) was over 100 µM.

Work on `CNC(=S)N/N=C/c1cccc(C)n1` yielded a TGI (BT-549 breast) of 86.3 µM, a TGI (HCT-116 colon) of over 100 µM and a TGI (MDA-N) of over 100 µM. It also gave a TGI (SR leukemia) of over 78.1 µM, a TGI (SNB-75 CNS) of 90.9 µM and a TGI (MALME-3M melanoma) of over 100 µM. The TGI (M14 melanoma) was 47.8 µM and the TGI (SF-268 CNS) was over 76 µM.

Work on `S=C1N=C(Cl)C2(NN1)c1ccccc1-c1ccccc12` yielded a TGI (BT-549 breast) of over 10 µM, a TGI (MDA-N) of over 10 µM and a TGI (SR leukemia) of over 10 µM. For the same compound, the TGI (SNB-75 CNS) was over 10 µM, the TGI (MALME-3M melanoma) was over 10 µM and the TGI (M14 melanoma) was over 10 µM. The TGI (SF-268 CNS) was over 10 µM.

`Cc1c(NC(=S)Nc2ccc(Cl)cc2)c(=O)n(-c2ccccc2)n1C` gave a TGI (BT-549 breast) of over 100 µM, a TGI (HCT-116 colon) of over 100 µM and a TGI (MDA-N) of over 100 µM. It also gave a TGI (SR leukemia) of over 100 µM, a TGI (SNB-75 CNS) of over 100 µM and a TGI (MALME-3M melanoma) of over 100 µM. The TGI (M14 melanoma) was over 100 µM and the TGI (SF-268 CNS) was over 100 µM.

With `CC(C)=CCSC1CC2C(CC1(C)O)C2(C)C` (stereo not given) the TGI (HCT-116 colon) was 33.5 µM and 28.7 µM, the TGI (DMS 114 small cell lung) was 30.7 µM and 21.7 µM and the TGI (XF 498 CNS) was 18 µM and 16.6 µM. The TGI (LXFL 529 NSCLC) was 31.7 µM and 27.1 µM, the TGI (SNB-75 CNS) was 30.1 µM and 23.7 µM and the TGI (DLD-1 colon) was 33.4 µM and 27.4 µM. For the same compound, the TGI (KM20L2 colon) was 30.8 µM and 34.9 µM, the TGI (SNB-78 CNS) was 41.2 µM and 26.3 µM and the GI50 (M19-MEL melanoma) was 1.86 µM and 4.26 µM. For the same compound, the TGI (M19-MEL melanoma) was 3.31 µM and 19.3 µM, the TGI (MALME-3M melanoma) was 31.2 µM and 30.4 µM and the TGI (M14 melanoma) was 32 µM and 27.9 µM. The TGI (SF-268 CNS) was 34.9 µM and 29.8 µM.

`COc1ccc(-c2cc(-c3cc(OC)c(OC)c(OC)c3)cc(-c3cc4ccccc4oc3=O)n2)cc1` gave a TGI (BT-549 breast) of 27.8 µM, a TGI (HCT-116 colon) of 18.2 µM and a TGI (MDA-N) of 68 µM. The TGI (SR leukemia) was over 100 µM, the TGI (SNB-75 CNS) was 9.61 µM and the TGI (MALME-3M melanoma) was 23.9 µM. It also gave a TGI (M14 melanoma) of over 100 µM and a TGI (SF-268 CNS) of 16.7 µM.

`C#C[C@]1(O)CC[C@H]2[C@@H]3CCc4cc(OC(=O)c5cccc6cc7ccccc7nc56)ccc4[C@H]3CC[C@@]21C` gave a TGI (BT-549 breast) of over 100 µM, a TGI (HCT-116 colon) of 80.1 µM and a TGI (MDA-N) of 89.3 µM. For the same compound, the TGI (SR leukemia) was over 100 µM, the TGI (SNB-75 CNS) was over 100 µM and the TGI (MALME-3M melanoma) was 34.7 µM. It also gave a TGI (M14 melanoma) of over 100 µM and a TGI (SF-268 CNS) of over 100 µM.

In the case of `COc1ccc(N=C(Nc2ccc(OC)cc2)C(=Nc2ccc(OC)cc2)Nc2ccc(OC)cc2)cc1`, the TGI (BT-549 breast) is reported as over 100 µM, the TGI (HCT-116 colon) is reported as over 100 µM and the TGI (MDA-N) is reported as over 100 µM. For the same compound, the TGI (SR leukemia) was over 100 µM, the TGI (SNB-75 CNS) was 8.01 µM and the TGI (MALME-3M melanoma) was over 100 µM. The TGI (M14 melanoma) was over 100 µM and the TGI (SF-268 CNS) was over 100 µM.

Work on `COc1cc(COC(=O)N2CCC2C(=O)O)c([N+](=O)[O-])cc1OC` (stereo not given) yielded a TGI (BT-549 breast) of over 100 µM, a TGI (HCT-116 colon) of over 100 µM and a TGI (MDA-N) of over 100 µM. The TGI (SR leukemia) was over 100 µM, the TGI (SNB-75 CNS) was over 100 µM and the TGI (MALME-3M melanoma) was over 100 µM. It also gave a TGI (M14 melanoma) of over 100 µM and a TGI (SF-268 CNS) of over 100 µM.

Compound `COC(=O)c1csc(-c2nc(CCNC(=O)OC(C)(C)C)sc2Br)n1` has a TGI (BT-549 breast) of over 100 µM, a TGI (HCT-116 colon) of over 100 µM and a TGI (MDA-N) of over 100 µM. It also gave a TGI (SR leukemia) of over 100 µM, a TGI (SNB-75 CNS) of over 100 µM and a TGI (MALME-3M melanoma) of over 100 µM. For the same compound, the TGI (M14 melanoma) was over 100 µM and the TGI (SF-268 CNS) was over 100 µM.

`COc1ccc(C2S/C(=C\c3ccc(O)cc3)C(=O)N2NC(=O)Cc2ccccc2)cc1` (stereo not given) gave a TGI (HCT-116 colon) of over 100 µM, a TGI (DMS 114 small cell lung) of over 100 µM and a TGI (LXFL 529 NSCLC) of over 100 µM. The TGI (SR leukemia) was over 100 µM, the TGI (SNB-75 CNS) was over 100 µM and the TGI (DLD-1 colon) was over 100 µM. The TGI (M19-MEL melanoma) was over 100 µM, the TGI (MALME-3M melanoma) was over 100 µM and the TGI (M14 melanoma) was over 100 µM. The TGI (SF-268 CNS) was over 100 µM.

Compound `CC(=O)OCC1=C(C)C(OC(=O)C(OC(C)=O)[C@@H](NC(=O)c2ccccc2)c2ccccc2)CCC1(C)C` (stereo not given in full) has a TGI (BT-549 breast) of over 100 µM, a TGI (HCT-116 colon) of over 100 µM and a TGI (MDA-N) of over 100 µM. It also gave a TGI (SR leukemia) of over 100 µM, a TGI (SNB-75 CNS) of over 100 µM and a TGI (MALME-3M melanoma) of over 100 µM. For the same compound, the TGI (SF-268 CNS) was over 100 µM.

`c1ccc(-c2nn(-c3ccccc3)[n+](-c3ccccc3)n2)cc1` gave a TGI (BT-549 breast) of over 100 µM, a TGI (HCT-116 colon) of over 56.7 µM and a TGI (MDA-N) of 31.5 µM. For the same compound, the TGI (SR leukemia) was over 44.4 µM, the TGI (SNB-75 CNS) was over 100 µM and the TGI (MALME-3M melanoma) was 2.93 µM. The TGI (M14 melanoma) was 47.5 µM and the TGI (SF-268 CNS) was over 38.8 µM.
